{"source": "patent US8178530B2", "about": "“Imidazolopyrazine compounds useful for the treatment of degenerative and inflammatory diseases” (Janssen Pharmaceutica NV, priority 2006, dated 2012)", "key": {"[1]": {"target": "T1, MAPKAPK5 (Homo sapiens, UniProt Q8IW41)", "T1 construct": "1 mU MAPKAP-K5", "T1 sequence (Q8IW41 1-473)": "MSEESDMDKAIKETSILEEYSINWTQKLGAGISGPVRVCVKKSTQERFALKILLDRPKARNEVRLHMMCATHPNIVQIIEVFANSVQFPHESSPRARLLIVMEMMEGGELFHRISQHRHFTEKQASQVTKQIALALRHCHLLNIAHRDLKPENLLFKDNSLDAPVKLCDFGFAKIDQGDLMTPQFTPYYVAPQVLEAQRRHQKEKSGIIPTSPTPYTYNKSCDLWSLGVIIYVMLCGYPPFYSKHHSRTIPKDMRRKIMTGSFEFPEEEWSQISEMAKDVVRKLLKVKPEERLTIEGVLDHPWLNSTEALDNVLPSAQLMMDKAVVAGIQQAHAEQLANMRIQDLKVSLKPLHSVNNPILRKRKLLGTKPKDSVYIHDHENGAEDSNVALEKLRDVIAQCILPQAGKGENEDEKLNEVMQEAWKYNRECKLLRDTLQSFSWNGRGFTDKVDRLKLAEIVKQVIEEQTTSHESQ", "assay": "MAPKAP-K5 assay (FlashPlate, 33P-ATP)", "type": "biochemical", "conditions": "0.6 μM ATP, 30 minutes at room temperature", "description": "3 μM MAPKAP-K5 peptide substrate"}, "[2]": {"tested_on": "MMP1 expression by SFs", "assay": "'MMP assay': MMP1 expression by 'complex trigger' activated synovial fibroblasts (MMP1 ELISA)", "type": "cell-based, human", "conditions": "Homo sapiens, Fibroblast, RASFs, 48 hrs", "description": "A 384-well format ELISA for measurement of MMP1 is developed. Various primary antibodies are tested, as well as various ELISA protocols. The following protocol is developed and validated to measure MMP1 levels in SF supernatant in 384 well plates: white Lumitrac 600 384 well plates (Greiner) are coated with 2 μg/mL anti-MMP1 antibody MAB1346 (Chemicon). The antibody is diluted in buffer 40 (1.21 g Tris base (Sigma), 0.58 g NaCl (Calbiochem) and 5 ml 10% NaN3 (Sigma) in 1 L milliQ water and adjusted to pH 8.5). After overnight incubation at 4° C., plates are washed with PBS (80 g NaCl, 2 g KCl (Sigma), 11.5 g Na2HPO4.7H2O and 2 g KH2PO4 in 10 L milliQ; pH 7.4) and blocked with 100 μL/well Casein buffer (2% Casein (VWR International) in PBS). Next day, casein buffer is removed from ELISA plates and replaced by 50 μL/well EC buffer (4 g casein, 2.13 g Na2HPO4 (Sigma), 2 g bovine albumin (Sigma), 0.69 g NaH2PO4.H2O (Sigma), 0.5 g CHAPS (Roche), 23.3 g NaCl, 4 mL 0.5 M EDTA pH 8 (Invitrogen), 5 mL 10% NaN3 in 1 L milliQ and adjusted to pH 7.0). 0.25 mM DTT (Sigma) is added to the thawed samples plates. After removal of the EC buffer, 20 μL of sample is transferred to the ELISA plates. After overnight incubation at 4° C. plates are washed twice with PBS and once with PBST (PBS with 0.05% Tween-20 (Sigma)) and incubated with 35 μL/well biotinylated anti-MMP1 antibody solution (R&D). This secondary antibody is diluted in buffer C (0.82 g NaH2PO4.H2O, 4.82 g Na2HPO4, 46.6 g NaCl, 20 g bovine albumin and 4 mL 0.5M EDTA pH 8 in 2 L milliQ and adjusted to pH 7.0) at a concentration of 5 μg/mL. After 2 h of incubation at RT, plates are washed as described above and incubated with 50 μL/well streptavidin-HRP conjugate (Biosource). Streptavidin-HRP conjugate is diluted in buffer C at a concentration of 0.25 μg/mL. After 45 min, plates are washed as described above and incubated for 5 min with 50 μL/well BM Chem ELISA Substrate (Roche). Readout is performed on the Luminoscan Ascent Luminometer (Labsystems) with an integration time of 200 msec or with an Envision reader (Perkin Elmer).\nThe increase of MMP1 expression by SFs upon treatment with cytokines relevant in the field of RA (TNF-α, IL1β and OSM) or a combination thereof is shown in FIG. 2 as white bars. For this experiment, SFs are seeded in 96 well plates, 3,000 cells/well. 24 h later, the medium is changed to M199 medium supplemented with 1% FBS. One day after the medium change, cytokines or combinations thereof are added to the cultures, each cytokine being added to a final concentration of 25 ng/mL. 72 h after cytokine addition, the supernatant is collected and processed in the MMP1 ELISA as described in the protocol given above. In parallel with this experiment, SFs are triggered, using the same protocol, with the supernatant of THP1 cells (2-fold diluted in M199+1% FBS) treated with the same cytokines or combinations of cytokines for 48 h in M199 medium+1% FBS. The induction of the MMP1 expression by SFs triggered with the supernatants of TNF-α-treated THP1 cells is stronger (>4.5 fold induction) as compared to the SFs triggered with recombinant TNF-α alone (3-fold induction) and almost equals the 5-fold induction obtained by a mixture of 3 purified cytokines (TNF-α, IL1βb, OSM). […] As the role of TNF-α in the RA pathogenesis is validated (TNF-α-blockers such as Infliximab and Etanercept show some efficacy in the treatment of RA patients) and the THP-1 cells are representative for monocytes/macrophages present in the joint of RA patients, the TNF-α-based trigger mixture prepared by contacting THP-1 cells with TNF-α will contain factors present in the joints of RA patients and subsequently is relevant to RA. This TNF-α-based complex trigger, further referred to as the ‘complex trigger’, will further be used as basis for the ‘MMP assay’.\nDexamethasone is shown to dose-dependently reduce amounts of MMP1 produced by complex trigger activated SFs. […]"}}, "note": "pEC50, pIC50: −log10 of the molar value."}
{"compound": "NC(=O)c1ccc(-c2cnc(Nc3ccc(C(=O)NCCO)cc3)c3nccn23)cc1", "note": "[Compound 49]", "values": [{"measurement": "pIC50", "setting": "[1]", "value": "< 6.00"}, {"measurement": "pEC50", "setting": "[2]", "value": "< 6.00"}]}
{"compound": "CCN(CC)CCNC(=O)c1cccc(Nc2ncc(-c3cn[nH]c3)n3ccnc23)c1", "note": "[Compound 50]", "values": [{"measurement": "pIC50", "setting": "[1]", "value": "< 6.00"}, {"measurement": "pEC50", "setting": "[2]", "value": "< 6.00"}]}
{"compound": "O=C(O)c1cccc(Nc2ncc(-c3cn[nH]c3)n3ccnc23)c1", "note": "[Compound 51]", "values": [{"measurement": "pIC50", "setting": "[1]", "value": "< 6.00"}, {"measurement": "pEC50", "setting": "[2]", "value": "< 6.00"}]}
{"compound": "NC(=O)c1ccc(Nc2ncc(-c3ccc(C(=O)O)cc3)n3ccnc23)cc1", "note": "[Compound 52]", "values": [{"measurement": "pIC50", "setting": "[1]", "value": "< 6.00"}, {"measurement": "pEC50", "setting": "[2]", "value": "< 6.00"}]}
{"compound": "O=C(O)c1ccc(-c2cnc(Nc3ccc(C(=O)NCCN4CCOCC4)cc3)c3nccn23)cc1", "note": "[Compound 54]", "values": [{"measurement": "pIC50", "setting": "[1]", "value": "< 6.00"}, {"measurement": "pEC50", "setting": "[2]", "value": "< 6.00"}]}
{"compound": "CN1CCN(C(=O)c2ccc(Nc3ncc(-c4cn[nH]c4)n4ccnc34)cc2)CC1", "note": "[Compound 57]", "values": [{"measurement": "pIC50", "setting": "[1]", "value": "6.30 to 7.00"}, {"measurement": "pEC50", "setting": "[2]", "value": "< 6.00"}]}
{"compound": "CCN(CC)CCNC(=O)c1ccc(Nc2ncc(-c3cn[nH]c3)n3ccnc23)c(C)c1", "note": "[Compound 58]", "values": [{"measurement": "pIC50", "setting": "[1]", "value": "< 6.00"}, {"measurement": "pEC50", "setting": "[2]", "value": "< 6.00"}]}
{"compound": "CCN(CC)CCNC(=O)c1ccc(Nc2ncc(-c3cn[nH]c3)n3cc(C)nc23)cc1", "note": "[Compound 59]", "values": [{"measurement": "pIC50", "setting": "[1]", "value": "< 6.00"}, {"measurement": "pEC50", "setting": "[2]", "value": "< 6.00"}]}
{"compound": "CCN(CC)CCNC(=O)c1ccc(Nc2ncc(-c3ccc(-c4nn[nH]n4)cc3)n3ccnc23)cc1", "note": "[Compound 60]", "values": [{"measurement": "pIC50", "setting": "[1]", "value": "< 6.00"}, {"measurement": "pEC50", "setting": "[2]", "value": "< 6.00"}]}
{"compound": "O=C(NCCO)c1ccc(Nc2ncc(-c3cn[nH]c3)n3ccnc23)cc1", "note": "[Compound 61]", "values": [{"measurement": "pIC50", "setting": "[1]", "value": "6.00 to 6.30"}, {"measurement": "pEC50", "setting": "[2]", "value": "< 6.00"}]}
{"compound": "c1cn2c(-c3nn[nH]n3)cnc(Nc3ccc(N4CCOCC4)cc3)c2n1", "note": "[Compound 62]", "values": [{"measurement": "pIC50", "setting": "[1]", "value": "< 6.00"}, {"measurement": "pEC50", "setting": "[2]", "value": "< 6.00"}]}
{"compound": "O=C(O)c1cnc(Nc2ccc(N3CCOCC3)cc2)c2nccn12", "note": "[Compound 63]", "values": [{"measurement": "pIC50", "setting": "[1]", "value": "< 6.00"}, {"measurement": "pEC50", "setting": "[2]", "value": "< 6.00"}]}
{"compound": "CCN(CC)CCNC(=O)c1ccc(Nc2ncc(-c3ccc(O)c(OC)c3)n3ccnc23)cc1", "note": "[Compound 65]", "values": [{"measurement": "pIC50", "setting": "[1]", "value": "< 6.00"}, {"measurement": "pEC50", "setting": "[2]", "value": "< 6.00"}]}
{"compound": "NC(=O)c1cnc(Nc2ccc(N3CCOCC3)cc2)c2nccn12", "note": "[Compound 66]", "values": [{"measurement": "pIC50", "setting": "[1]", "value": "< 6.00"}, {"measurement": "pEC50", "setting": "[2]", "value": "< 6.00"}]}
{"compound": "c1cn2c(-c3cn[nH]n3)cnc(Nc3ccc(N4CCOCC4)cc3)c2n1", "note": "[Compound 67]", "values": [{"measurement": "pIC50", "setting": "[1]", "value": "< 6.00"}, {"measurement": "pEC50", "setting": "[2]", "value": "< 6.00"}]}
{"compound": "CCN(CC)CCNC(=O)c1ccc(Nc2ncc(-c3nn[nH]n3)n3ccnc23)cc1", "note": "[Compound 68]", "values": [{"measurement": "pIC50", "setting": "[1]", "value": "< 6.00"}, {"measurement": "pEC50", "setting": "[2]", "value": "< 6.00"}]}
{"compound": "CN1CCN(S(=O)(=O)c2ccc(Nc3ncc(-c4cn[nH]c4)n4ccnc34)cc2)CC1", "note": "[Compound 70]", "values": [{"measurement": "pIC50", "setting": "[1]", "value": "< 6.00"}, {"measurement": "pEC50", "setting": "[2]", "value": "< 6.00"}]}
{"compound": "CCN(CC)CCNC(=O)c1ccc(Nc2ncc(-c3cccnc3)n3ccnc23)cc1", "note": "[Compound 72]", "values": [{"measurement": "pIC50", "setting": "[1]", "value": "< 6.00"}, {"measurement": "pEC50", "setting": "[2]", "value": "< 6.00"}]}
{"compound": "CCN(CC)CCNC(=O)c1ccc(Nc2ncc(-c3ccsc3)n3ccnc23)cc1", "note": "[Compound 73]", "values": [{"measurement": "pIC50", "setting": "[1]", "value": "< 6.00"}, {"measurement": "pEC50", "setting": "[2]", "value": "< 6.00"}]}
{"compound": "CCN(CC)CCNC(=O)c1ccc(Nc2ncc(-c3ccoc3)n3ccnc23)cc1", "note": "[Compound 74]", "values": [{"measurement": "pIC50", "setting": "[1]", "value": "< 6.00"}, {"measurement": "pEC50", "setting": "[2]", "value": "< 6.00"}]}
